# pKi: −log10 of the molar value. Residues, ends and D or L forms follow the SMILES beside them.
# Assays:
# dengue 2 protease [1] = molecular target: T1, dengue 2 protease (Dengue virus type 2, UniProt P14340); experiment: Dengue 2 protease inhibition in presence of Triton X-100 (detergent test, Nature Protocol); type: biochemical, dengue 2 virus; details: 0.05% Triton X-100; for Activity with 0.05% Triton: initial activity in UAF/min
# T1 construct: The active site of the dengue protease is in the N-terminal part of NS3
# T1 sequence (P14340 1476-1653): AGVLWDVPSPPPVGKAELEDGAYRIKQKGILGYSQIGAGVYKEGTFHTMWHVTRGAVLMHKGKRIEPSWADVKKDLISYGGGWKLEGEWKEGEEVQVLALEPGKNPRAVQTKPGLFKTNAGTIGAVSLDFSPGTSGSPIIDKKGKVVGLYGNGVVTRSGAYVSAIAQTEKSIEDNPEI
# Text: A further investigation of the interactions of the geminoid inhibitors with biological membranes and with membrane-bound proteases is needed. […] The preparation and tests of peptides symmetrically, asymmetrically and singly alkylated with saturated, short (C6), and unsaturated (C18:1) alkyl tails are in progress.
# thrombin = thrombin (Homo sapiens, UniProt P00734); experiment: Thrombin inhibition, fluorimetric enzyme assay; type: biochemical; details: 36.5° C., read-out: Residual Activity (%) Thrombin; for remaining activity at 18 µM: 18 μM inhibitor; for remaining activity at 55 µM: 55 μM inhibitor; for remaining activity at 85 µM: 85 μM inhibitor
# Description: The enzyme was dissolved in 1 mL MES buffer (10 mM), 1 mM CaCl2, pH 7.0 at 36.5° C. Substrate was added in a concentration 10 times the Km, and the inhibitor compounds of type C (C16-KGnK-C16, C16-KAnK-C16, and C16-RAnR-C16) were added in increasing concentrations (1.0, 5.0, 10.0, 20.0, 40.0 μL) from a stock solution of 2 mg in 1 mL DMSO. The residual activity was measured in a Hitachi F2500 spectrofluorimeter, and plots were fitted using the Grafit® software (Erithracus Software, Horley, Surrey, UK). All the assays were calculated by the Morrison equation for competitive inhibition (eq. 1, [Morrison, 1969]). The amount of substrate used for the tight binding titration experiments follow all the requirements, where [S]<<Km for all enzymes, so the Kiapp=Ki. […]
# dengue 2 protease [2] = molecular target: T1, dengue 2 protease; experiment: Dengue 2 protease inhibition, hydrolysis of Z-RR-MCA; type: biochemical, dengue 2 virus; set-up: unit not given here; details: 10 μM Z-RR-MCA, pH 9.0, 37° C., initial activity in UAF/min
# dengue 2 protease [3] = molecular target: T1, dengue 2 protease; experiment: as above; type: biochemical, dengue 2 virus; details: for activity at 5 µM: 5 μM inhibitor; for activity at 10 µM: 10 μM inhibitor; for activity at 15 µM: 15 μM inhibitor; for activity at 20 µM: 20 μM inhibitor; for activity at 40 µM: 40 μM inhibitor; for activity at 2.5 µM: 2.5 μM inhibitor
# human furin = human furin (Homo sapiens, UniProt P09958); experiment: Human furin inhibition, hydrolysis of Ac-RVRR-MCA; type: biochemical; details: for activity at 5 µM: 5 μM inhibitor; for activity at 10 µM: 10 μM inhibitor; for activity at 15 µM: 15 μM inhibitor; for activity at 20 µM: 20 μM inhibitor; for activity at 40 µM: 40 μM inhibitor; for activity at 2.5 µM: 2.5 μM inhibitor; for pKi: 10 mM Mes.NaOH, pH 7.0, 2.35 μM Ac-RVRR-MCA, 37° C., read-out: Ki hFurin
# Chain of human furin (P09958 108-794): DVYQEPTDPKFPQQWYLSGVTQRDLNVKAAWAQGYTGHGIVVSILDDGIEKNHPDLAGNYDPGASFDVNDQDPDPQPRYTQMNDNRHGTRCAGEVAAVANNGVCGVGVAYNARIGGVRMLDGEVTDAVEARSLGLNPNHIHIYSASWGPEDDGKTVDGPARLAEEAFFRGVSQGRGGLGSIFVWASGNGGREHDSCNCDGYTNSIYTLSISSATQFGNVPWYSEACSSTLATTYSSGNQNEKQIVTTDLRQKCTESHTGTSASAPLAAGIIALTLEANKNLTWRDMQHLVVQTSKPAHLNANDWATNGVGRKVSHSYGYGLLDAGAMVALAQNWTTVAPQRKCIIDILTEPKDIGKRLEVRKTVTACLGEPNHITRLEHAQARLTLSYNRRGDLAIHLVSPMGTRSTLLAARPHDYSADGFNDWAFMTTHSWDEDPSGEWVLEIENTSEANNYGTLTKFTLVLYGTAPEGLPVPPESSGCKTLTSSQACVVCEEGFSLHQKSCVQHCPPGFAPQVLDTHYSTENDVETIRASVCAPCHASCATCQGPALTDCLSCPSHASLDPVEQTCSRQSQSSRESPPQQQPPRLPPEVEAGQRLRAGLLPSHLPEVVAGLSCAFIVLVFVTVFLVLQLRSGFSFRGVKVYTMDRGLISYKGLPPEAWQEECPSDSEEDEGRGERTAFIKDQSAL
# Description: (§1) The enzyme was dissolved in 1 mL MES buffer (10 mM), 1 mM CaCl2, pH 7.0 at 36.5° C. Substrate was added in a concentration 10 times the Km, and the inhibitor compounds of type C (C16-KGnK-C16, C16-KAnK-C16, and C16-RAnR-C16) were added in increasing concentrations (1.0, 5.0, 10.0, 20.0, 40.0 μL) from a stock solution of 2 mg in 1 mL DMSO. The residual activity was measured in a Hitachi F2500 spectrofluorimeter, and plots were fitted using the Grafit® software (Erithracus Software, Horley, Surrey, UK). All the assays were calculated by the Morrison equation for competitive inhibition (eq. 1, [Morrison, 1969]). The amount of substrate used for the tight binding titration experiments follow all the requirements, where [S]<<Km for all enzymes, so the Kiapp=Ki.
# However, for furin we used a correction of Ki app, where [S]˜Km (eq. 2).
# Range of Proteases Inhibited by Geminoids, Determination of Ki with Z-RR-MCA (Dengue 2 Protease) and Ac-RVRR-MCA (Furin) (SEQ ID NO:60).
# trypsin = molecular target: T2, trypsin (Bos taurus, UniProt P00760); experiment: Trypsin inhibition, fluorimetric enzyme assay; type: biochemical; details: for remaining activity at 18 µM: 18 μM inhibitor; for remaining activity at 18 µM / remaining activity at 55 µM / remaining activity at 85 µM / remaining activity at 15 µM / remaining activity at 40 µM / remaining activity at 80 µM: 36.5° C., read-out: Residual Activity (%) Trypsin; for remaining activity at 55 µM: 55 μM inhibitor; for remaining activity at 85 µM: 85 μM inhibitor; for remaining activity at 15 µM: 15 μM inhibitor; for remaining activity at 40 µM: 40 μM inhibitor; for remaining activity at 80 µM: 80 μM inhibitor
# T2 construct: gene PRSS1
# T2 sequence (P00760 24-246): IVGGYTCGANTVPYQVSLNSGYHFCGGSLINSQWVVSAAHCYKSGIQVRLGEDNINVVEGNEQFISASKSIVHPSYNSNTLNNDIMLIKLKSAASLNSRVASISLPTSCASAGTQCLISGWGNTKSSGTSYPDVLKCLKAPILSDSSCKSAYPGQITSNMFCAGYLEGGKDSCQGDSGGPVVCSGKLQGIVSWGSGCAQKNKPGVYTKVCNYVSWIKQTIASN
# Description: as §1
# (§2) The first group of gemini-like peptide amphiphiles to be screened was that of C16-K(G or A)nK-C16 (compound type C, with R1=n-C15H31, R2=n-C16H33). […] The results of the Ki determination for trypsin, dengue 2 protease, and human furin are given in Table 1A; some general data for the inhibition by this type of compounds are given in Table 1B. For most compounds in Table 1 the Ki could be derived from competitive inhibition experiments. Judging from the Ki values with the relatively simple substrate Z-RR-MCA, the best inhibitors for dengue 2 protease contain alanine (A) rather than glycine (G).
# plasmin = plasmin (Homo sapiens, UniProt P00747); experiment: Plasmin inhibition, fluorimetric enzyme assay; type: biochemical; details: 36.5° C., read-out: Residual Activity (%) Plasmin
# Chain of plasmin (P00747 581-810 limits assumed, species assumed): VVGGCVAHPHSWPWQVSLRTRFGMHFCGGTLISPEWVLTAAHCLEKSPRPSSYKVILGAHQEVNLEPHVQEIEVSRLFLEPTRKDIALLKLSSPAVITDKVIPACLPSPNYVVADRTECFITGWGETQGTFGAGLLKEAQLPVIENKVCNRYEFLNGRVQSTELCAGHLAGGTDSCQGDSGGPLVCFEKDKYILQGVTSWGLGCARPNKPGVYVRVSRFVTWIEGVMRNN
# Chain of plasmin (P00747 97-580 partner limits assumed, species assumed): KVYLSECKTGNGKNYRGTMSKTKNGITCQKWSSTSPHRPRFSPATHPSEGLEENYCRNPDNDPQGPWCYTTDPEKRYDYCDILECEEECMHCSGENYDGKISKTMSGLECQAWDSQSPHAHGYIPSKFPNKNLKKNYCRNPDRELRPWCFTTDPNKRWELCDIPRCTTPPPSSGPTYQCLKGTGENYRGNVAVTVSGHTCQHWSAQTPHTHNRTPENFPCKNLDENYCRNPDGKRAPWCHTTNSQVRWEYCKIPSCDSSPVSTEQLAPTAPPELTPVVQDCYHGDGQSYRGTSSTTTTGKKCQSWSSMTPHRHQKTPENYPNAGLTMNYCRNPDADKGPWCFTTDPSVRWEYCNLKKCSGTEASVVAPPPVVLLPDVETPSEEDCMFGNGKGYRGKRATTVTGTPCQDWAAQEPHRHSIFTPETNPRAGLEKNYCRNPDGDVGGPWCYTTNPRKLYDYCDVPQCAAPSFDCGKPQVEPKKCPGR
# Description: as §1, §2
SMILES,% recovery in presence of Triton (dengue 2 protease [1]; 30 μM of inhibitor) [%],Activity with 0.05% Triton (dengue 2 protease [1]; 30 μM of inhibitor),remaining activity at 55 µM (thrombin) [%],remaining activity at 85 µM (thrombin) [%],Activity with inhibitors (dengue 2 protease [2]; 30 μM of inhibitor),pKi (dengue 2 protease [3]),activity at 5 µM (dengue 2 protease [3]; 36.5° C.) [%],activity at 10 µM (dengue 2 protease [3]; 36.5° C.) [%],activity at 15 µM (dengue 2 protease [3]; 36.5° C.) [%],activity at 20 µM (dengue 2 protease [3]; 36.5° C.) [%],activity at 40 µM (dengue 2 protease [3]; 36.5° C.) [%],activity at 5 µM (human furin; 36.5° C.) [%],activity at 10 µM (human furin; 36.5° C.) [%],activity at 15 µM (human furin; 36.5° C.) [%],activity at 20 µM (human furin; 36.5° C.) [%],activity at 40 µM (human furin; 36.5° C.) [%],remaining activity at 55 µM (trypsin) [%],remaining activity at 85 µM (trypsin) [%],pKi (trypsin),remaining activity at 15 µM (trypsin) [%],further results
CCCCCCCCCCCCCCCCNC(=O)[C@H](CCCCN)NC(=O)CNC(=O)CNC(=O)CNC(=O)CNC(=O)[C@H](CCCCN)NC(=O)CCCCCCCCCCCCCCC [C16KG4KC16] (HELM PEPTIDE1{[CCCCCCCCCCCCCCCC(=O)[*:2]].K.G.G.G.G.K.[CCCCCCCCCCCCCCCCN[*:1]]}$$$$V2.0),63,125,59,41,0,5.86,86,78,70,60,45,82,64,54,23,0,67,53,,,remaining activity at 18 µM (thrombin): 88%; remaining activity at 18 µM (trypsin): 81%
CCCCCCCCCCCCCCCCNC(=O)[C@H](CCCCN)NC(=O)[C@H](C)NC(=O)[C@H](C)NC(=O)[C@H](C)NC(=O)[C@H](CCCCN)NC(=O)CCCCCCCCCCCCCCC [C16-KAAAK-C16] (HELM PEPTIDE1{[CCCCCCCCCCCCCCCC(=O)[*:2]].K.A.A.A.K.[CCCCCCCCCCCCCCCCN[*:1]]}$$$$V2.0),50,91,,,0,5.85,85,75,64,,25,56,24,10,,0,,,4.39,79,activity at 2.5 µM (dengue 2 protease [3]; 36.5° C.): 91%; activity at 2.5 µM (human furin; 36.5° C.): 73%; pKi (human furin): 5.76; remaining activity at 40 µM (trypsin): 54%; remaining activity at 80 µM (trypsin): 40%
CCCCCCCCCCCCCCCCNC(=O)[C@H](CCCCN)NC(=O)[C@H](C)NC(=O)[C@H](C)NC(=O)[C@H](C)NC(=O)[C@H](C)NC(=O)[C@H](CCCCN)NC(=O)CCCCCCCCCCCCCCC [C16-KAAAAK-C16] (HELM PEPTIDE1{[CCCCCCCCCCCCCCCC(=O)[*:2]].K.A.A.A.A.K.[CCCCCCCCCCCCCCCCN[*:1]]}$$$$V2.0),,,,,,5.62,90,85,79,,45,59,52,45,,0,,,,73,% recovery in presence of Triton (dengue 2 protease [1]; 20 μM of inhibitor): 67%; Activity with 0.05% Triton (dengue 2 protease [1]; 20 μM of inhibitor): 133; Activity with inhibitors (dengue 2 protease [2]; 20 μM of inhibitor): 47; activity at 2.5 µM (dengue 2 protease [3]; 36.5° C.): 94%; activity at 2.5 µM (human furin; 36.5° C.): 70%; pKi (human furin): 5.76; remaining activity at 40 µM (trypsin): 35%; remaining activity at 80 µM (trypsin): 20%
"CCCCCCCCCCCCCCCCNC(=O)[C@H](CCCCN)NC(=O)[C@H](CCCCN)NC(=O)CCCCCCCCCCCCCCC [C16-KK-C16, C15H31CO-KK-NH—C16H33]",52,113,48,37,48,5.27,,,,58,,,,,10,,58,43,4.07,82,"remaining activity at 15 µM (plasmin; 15 μM inhibitor): 39%; remaining activity at 55 µM (plasmin; 55 μM inhibitor): 11%; remaining activity at 85 µM (plasmin; 85 μM inhibitor): 4%; remaining activity at 15 µM (thrombin; 15 μM inhibitor): 62%; activity at 50 µM (dengue 2 protease [3]; 50 μM inhibitor, 36.5° C.): 37%; activity at 100 µM (dengue 2 protease [3]; 100 μM inhibitor, 36.5° C.): 7%; activity at 50 µM (human furin; 50 μM inhibitor, 36.5° C.): 5%; activity at 100 µM (human furin; 100 μM inhibitor, 36.5° C.): 0%"
"CCCCCCCCCCCCCCCCNC(=O)[C@H](CCCCN)NC(=O)CNC(=O)CNC(=O)CNC(=O)[C@H](CCCCN)NC(=O)CCCCCCCCCCCCCCC [C16-KGGGK-C16, C15H31CO-KGGGK-NH—C16H33] (HELM PEPTIDE1{[CCCCCCCCCCCCCCCC(=O)[*:2]].K.G.G.G.K.[CCCCCCCCCCCCCCCCN[*:1]]}$$$$V2.0)",75,154,64,45,40,5.60,86,80,74,65,51,68,35,29,20,0,56,38,4.95,,remaining activity at 18 µM (thrombin): 81%; remaining activity at 18 µM (trypsin): 84%

# Reference: patent US20220017572A1, “GEMINOID LIPOPEPTIDE COMPOUNDS AND THEIR USES” (Erasmus University Medical Center Rotterdam, priority 2016, published 2022)
